Results as given in publication PMC10418599, “Quercetins, Chlorogenic Acids and Their Colon Metabolites Inhibit Colon Cancer Cell Proliferation at Physiologically Relevant Concentrations” (International Journal of Molecular Sciences, 2023).

How the values were obtained:
Caco-2 cell line [1] = assay: Anti-proliferative assay (MTS cell proliferation assay); assay type: cell-based, Human; settings: for IC50: maximum tested concentration 200 μmol/L
Protocol: (§1) Human colon cancer Caco-2 and SW480 cell lines were cultured and grown as previously reported. […] Incubation was carried out for 24, 48 and 72 h. Data were compared with a control solution containing 0.5% DMSO in cell medium and representing 100% proliferation. In addition, six different mixes were prepared to simulate the simultaneous presence of parent phenolic compounds and metabolites by mimicking the possible human inter-individual variability in colon metabolism of phenolic compounds. Two sets of mixes were prepared to consider the colon metabolism of quercetins and chlorogenic acids. […] For each set of mixtures (QUE and CGA mixtures), three different mixes were formulated. One set of mixes mimicked the low-producers metabotype and contained 90% parent compounds and 10% metabolites (mixes QUE-LP and CGA-LP). Another set of mixes was prepared to simulate the high-producers metabotype and contained 10% parent compounds and 90% metabolites (mixes QUE-HP and CGA-HP). Finally, a third set of mixes was prepared with equimolar amounts of all the compounds (mixes QUE-EQ and CGA-EQ). […] Cell proliferation was assessed by the MTS assay as previously described. […] The IC50 values were calculated through non-linear regression analysis by plotting the base-10 logarithm of the phenolic compound concentration vs. the percentage of inhibition.

SW480 cell line [2] = assay: as above; assay type: cell-based, Human; settings: for IC50: maximum tested concentration 200 μmol/L
Protocol: as §1

SW480 cell line [3] = assay: Cell metabolism of phenolic compounds (UHPLC-HR-MS analysis of cell media); assay type: in vitro ADME, Human; settings: for Concentration of substrate in cell medium: initial 50 μmol/L
Protocol: (§2) To analyze the metabolism of phenolic compounds by Caco-2 and SW480 cells, the cell culture media were withdrawn after 0, 24, 48 and 72 h of incubation. Phenolic compounds were extracted from the culture media by following the procedure reported in Sala et al.. Briefly, 100 μL of cold methanol was mixed with 100 μL of cell media and vortexed for 1 min. The mixture was then centrifuged at 10,000× g (4 °C, 5 min) and the supernatant was injected, after appropriate dilution, in an ultra-high-performance liquid chromatography high-resolution mass spectrometry system (UHPLC-HR-MS).
(§3) The HR-MS system consisted of a UHPLC Ultimate 3000 separation module, equipped with a C18 column (Acquity UPLC HSS C18 reversed phase, 2.1 × 100 mm, 1.8 μm particle size, Waters, Milan, Italy) and coupled with a Q Exactive Hybrid Quadrupole-Orbitrap Mass Spectrometer (Thermo Scientific, San Jose, CA, USA). Mobile phases consisted of a mixture of water containing formic acid (0.1%) (mobile phase A) and acetonitrile containing formic acid (0.1%) (mobile phase B). The gradient began at 1% B, reaching 40% B over 20 min. To wash the column, the mobile phase B concentration was raised to 99% over 6 min and kept at 99% for 3 min before returning to the initial conditions. The MS and MS/MS conditions are fully described in Martini et al..
(§4) Quantification was carried out by building external calibration curves with the available standard compounds.

[4] = cited from earlier work; for Maximum value in human fecal water: after raspberry supplementation, ref 49 (Gill et al.)
[5] = Cell metabolism of phenolic compounds (UHPLC-HR-MS analysis of cell media); assay type: in vitro ADME, Human; settings: human, SW480 cells; SW480, 72 h
Protocol: as §2, §3, §4

in vitro = in vitro ADME; settings: human
Protocol: as §2, §3, §4

Caco-2 cell line [6] = assay: in vitro; assay type: in vitro ADME; settings: human; for Concentration of substrate in cell medium: 50 μmol/L
Protocol: as §2, §3, §4

SW480 cells = assay: Cell cycle analysis by flow cytometry; assay type: cell-based, Human; settings: 72 h, concentration equal to the IC50 value, vs control
Protocol: Cell cycle analysis was carried out in both Caco-2 and SW480 cell lines as previously reported by Nicoletti et al.. Cells were seeded in 6-well plates at a density of 4000 and 8000 cells/cm^2 for Caco-2 and SW480, respectively.
After 72 h of incubation, the cells were washed with PBS, detached from the 6-well plates with 500 μL of trypsin and resuspended in 1000 μL of medium. Subsequently, they were centrifuged at 3500 rpm for 5 min. After removing the supernatant, the pellet was resuspended with 400 μL of Nicoletti’s solution (sodium citrate 0.1%, Triton X-100 0.1% and 20 μg/mL propidium iodide). After 15 min of incubation at 4 °C in the dark, cell cycle analysis was performed with an Epics XL MCL flow cytometer (Beckman Coulter, Brea, CA, USA).
The data were compared with a control solution containing 0.5% DMSO in the cell medium.

[7] = design: method as in PMID 33350133, doi:10.1002/fft2.50; settings: of the ingested dose; cited from earlier work
[8] = Homo sapiens, Caco-2, 24 h of incubation
[9] = Homo sapiens, Caco-2, 48 h of incubation
[10] = Homo sapiens, Caco-2, 72 h of incubation
[11] = Homo sapiens, SW480, 48 h of incubation
[12] = Homo sapiens, SW480, 72 h of incubation
[13] = no dietary restriction or supplementation, ref 47 (Jenner et al.)

Row | Compound | IC50 (SW480 cell line [2]; SW480, 48 h of incubation) [µM] | IC50 (SW480 cell line [2]; SW480, 72 h of incubation) [µM] | Concentration of substrate in cell medium (SW480 cell line [3]; SW480, 24 h) [µmol/L] | Concentration of substrate in cell medium (SW480 cell line [3]; SW480, 48 h) [µmol/L] | Concentration of substrate in cell medium (SW480 cell line [3]; SW480, 72 h) [µmol/L] | IC50 (Caco-2 cell line [1]; [9]) [µM] | IC50 (Caco-2 cell line [1]; [10]) [µM] | IC50 (SW480 cell line [2]; [11]) [µM] | IC50 (SW480 cell line [2]; [12]) [µM] | Concentration of substrate in cell medium (Caco-2 cell line [6]; 24 h) [µmol/L] | Concentration of substrate in cell medium (Caco-2 cell line [6]; 48 h) [µmol/L] | Concentration of substrate in cell medium (Caco-2 cell line [6]; 72 h) [µmol/L] | Maximum value in human fecal water [4] [µmol/L] | also measured
1 | O=C(/C=C/c1ccc(O)c(O)c1)OC1CC(O)(C(=O)O)CC(OC(=O)/C=C/c2ccc(O)c(O)c2)C1O (stereo not shown) [3,5-di-O-Caffeoylquinic acid, 3,5-di-O-caffeoylquinic acid] | > 200 | > 200 | 7.13 ± 0.13 | 5.41 ± 0.07 | 6.17 ± 0.05 | – | – | – | – | – | – | – | – | Inhibition of Caco-2 growth (Caco-2 cell line [1]; 100 μmol/L, 72 h): almost complete inhibition; IC50 (Caco-2 cell line [1]; Caco-2, 24 h of incubation): > 200 µM; IC50 (Caco-2 cell line [1]; Caco-2, 48 h of incubation): 27.5 ± 1 µM; IC50 (Caco-2 cell line [1]; Caco-2, 72 h of incubation): 8.8 ± 0.2 µM; Percentage of inhibition of SW480 growth (SW480 cell line [2]; 100 μmol/L, 72 h): 10.9%
2 | O=C(O)Cc1ccc(O)c(O)c1 [3-(3′,4′-Dihydroxyphenyl)acetic acid, 3-(3′,4′-dihydroxyphenyl)acetic acid] | – | – | 21.62 ± 0.48 | 15.84 ± 0.09 | 10.30 ± 0.36 | 14.7 ± 0.8 | 3 ± 0.1 | > 200 | 92.2 ± 6.9 | – | – | – | 442 | IC50 (Caco-2 cell line [1]; [8]): 79.5 ± 1.4 µM
3 | O=C(O)Cc1cccc(O)c1 [3-(3′-Hydroxyphenyl)acetic acid, 3-(3′-hydroxyphenyl)acetic acid] | – | – | 42.23 ± 0.55 | 42.81 ± 0.10 | 39.28 ± 0.85 | > 200 | > 200 | > 200 | 99.6 ± 4.8 | 48.83 ± 0.85 | 47.02 ± 0.39 | 43.17 ± 0.06 | 327 | recovery at 72 h [5]: > 80%; recovery at 72 h (in vitro): > 80%
4 | O=C(O)CCc1cccc(O)c1 [3-(3′-Hydroxyphenyl)propanoic acid, 3-(3′-hydroxyphenyl)propanoic acid] | – | – | 52.74 ± 0.44 | 50.70 ± 0.11 | 49.95 ± 0.37 | > 200 | > 200 | – | > 200 | 45.51 ± 0.41 | 46.27 ± 0.58 | 46.28 ± 0.76 | 1810 | IC50 (Caco-2 cell line [1]; [8]): > 200 µM; inhibition at 100 µM (SW480 cell line [2]; Homo sapiens, SW480, 100 μmol/L, 72 h, read-out: Percentage of inhibition of SW480 growth): 13.3%; recovery at 72 h [5]: > 80%; recovery at 72 h (in vitro): > 80%; Concentration in human fecal water ([4]; no dietary restriction or supplementation, ref 46 (Karlsson et al.)): 61 ± 34 µmol/L; Mean concentration in human fecal water [4, 13]: 68 ± 93 µmol/L; Range of concentration in human fecal water [4, 13]: 0.72 to 209 µmol/L

The next lines start with results.

Row | IC50 (SW480 cell line [2]; SW480, 48 h of incubation) [µM] | IC50 (SW480 cell line [2]; SW480, 72 h of incubation) [µM] | Concentration of substrate in cell medium (SW480 cell line [3]; SW480, 24 h) [µmol/L] | Concentration of substrate in cell medium (SW480 cell line [3]; SW480, 48 h) [µmol/L] | Concentration of substrate in cell medium (SW480 cell line [3]; SW480, 72 h) [µmol/L] | IC50 (Caco-2 cell line [1]; [9]) [µM] | IC50 (Caco-2 cell line [1]; [10]) [µM] | IC50 (SW480 cell line [2]; [11]) [µM] | IC50 (SW480 cell line [2]; [12]) [µM] | Concentration of substrate in cell medium (Caco-2 cell line [6]; 24 h) [µmol/L] | Concentration of substrate in cell medium (Caco-2 cell line [6]; 48 h) [µmol/L] | Concentration of substrate in cell medium (Caco-2 cell line [6]; 72 h) [µmol/L] | Compound | Maximum value in human fecal water [4] [µmol/L] | also measured
5 | > 200 | > 200 | – | – | – | – | – | – | – | – | – | – | O=C(/C=C/c1ccc(O)c(O)c1)O[C@@H]1C[C@](O)(C(=O)O)C[C@@H](O)[C@H]1O [5-O-Caffeoylquinic acid, 5-O-caffeoylquinic acid] | – | Percentage of inhibition of SW480 growth (SW480 cell line [2]; 100 μmol/L, 72 h): 14.7%; Concentration of substrate in cell medium (SW480 cell line [3]; SW480, 24 h, listed as 5-O-Caffeoylquinic acid trans): 16.76 ± 0.01 µmol/L; Concentration of newly formed metabolite (SW480 cell line [3]; SW480, 24 h, substrate 3,5-di-O-Caffeoylquinic acid 50 μmol/L, listed as 5-O-Caffeoylquinic acid trans): 0.08 ± 0.01 µmol/L; Concentration of newly formed metabolite (SW480 cell line [3]; SW480, 24 h, substrate 3-O-Caffeoylquinic acid trans 50 μmol/L, listed as 5-O-Caffeoylquinic acid trans): 4.95 ± 0.04 µmol/L; Concentration of substrate in cell medium (SW480 cell line [3]; SW480, 48 h, listed as 5-O-Caffeoylquinic acid trans): 17.52 ± 0.08 µmol/L; Concentration of newly formed metabolite (SW480 cell line [3]; SW480, 48 h, substrate 3-O-Caffeoylquinic acid trans 50 μmol/L, listed as 5-O-Caffeoylquinic acid trans): 7.37 ± 0.07 µmol/L; Concentration of substrate in cell medium (SW480 cell line [3]; SW480, 72 h, listed as 5-O-Caffeoylquinic acid trans): 13.96 ± 0.03 µmol/L; Concentration of newly formed metabolite (SW480 cell line [3]; SW480, 72 h, substrate 3,5-di-O-Caffeoylquinic acid 50 μmol/L, listed as 5-O-Caffeoylquinic acid trans): 0.29 ± 0.01 µmol/L; Concentration of newly formed metabolite (SW480 cell line [3]; SW480, 72 h, substrate 3-O-Caffeoylquinic acid trans 50 μmol/L, listed as 5-O-Caffeoylquinic acid trans): 11.32 ± 0.43 µmol/L
6 | – | – | 47.39 ± 1.22 | 40.37 ± 1.20 | 14.83 ± 0.84 | > 200 | 116 ± 4.9 | 89.2 ± 3.1 | 58.2 ± 2.7 | 0.61 ± 0.01 | 0.29 ± 0.01 | 0.52 ± 0.02 | O=c1c(O)c(-c2ccc(O)c(O)c2)oc2cc(O)cc(O)c12 [Quercetin, quercetin] | – | Decrease in IC50 value from 48 to 72 h (SW480 cell line [2]; SW480): 1.5 fold; Increase in the number of SW480 cells in the S phase (SW480 cells): 3.1 times; Concentration of newly formed metabolite (SW480 cell line [3]; SW480, 24 h, substrate Quercetin-4′-O-glucoside 50 μmol/L): 52.70 ± 2.24 µmol/L; Concentration of newly formed metabolite (SW480 cell line [3]; SW480, 48 h, substrate Quercetin-3-O-glucoside-4′-O-glucoside 50 μmol/L): 0.04 ± 0.00 µmol/L; Concentration of newly formed metabolite (SW480 cell line [3]; SW480, 48 h, substrate Quercetin-4′-O-glucoside 50 μmol/L): 36.89 ± 0.52 µmol/L; Concentration of newly formed metabolite (SW480 cell line [3]; SW480, 72 h, substrate Quercetin-3-O-glucoside-4′-O-glucoside 50 μmol/L): 0.07 ± 0.00 µmol/L; Concentration of newly formed metabolite (SW480 cell line [3]; SW480, 72 h, substrate Quercetin-4′-O-glucoside 50 μmol/L): 12.78 ± 0.41 µmol/L; Decrease in cell medium concentration (Caco-2 cell line [6]; 24 h): 99.5%; Absorption in the small intestine [7]: about 20%
7 | 144 ± 6.6 | 102 ± 5.3 | 2.98 ± 0.07 | 0.07 ± 0.00 | 0.01 ± 0.00 | – | – | – | – | – | – | – | O=c1c(O)c(-c2ccc(O[C@@H]3O[C@H](CO)[C@@H](O)[C@H](O)[C@H]3O)c(O)c2)oc2cc(O)cc(O)c12 [Quercetin-4′-O-glucoside, quercetin-4′-O-glucoside] | – | IC50 (Caco-2 cell line [1]; Caco-2, 48 h of incubation): > 200 µM; IC50 (Caco-2 cell line [1]; Caco-2, 72 h of incubation): > 200 µM; Decrease in IC50 value from 48 to 72 h (SW480 cell line [2]; SW480): 1.4 fold; Increase in the number of SW480 cells in the S phase (SW480 cells): 2.5 times
